{"source": "paper PMC12655252", "about": "“Synthesis of 1H-Pyrrolo[3,2-g]isoquinoline Derivatives as Ligands Targeting Haspin Kinase” (Molecules, 2025)", "system": "endogenous Haspin kinase (phosphorylation of Histone H3 on Thr3) in U2OS cells", "assay": "H3T3ph immunofluorescence assay in U2OS cells (cellular endogenous Haspin activity)", "format": "cell-based", "settings": "1 μM, 16 h, positive control", "protocol": "In order to assess the ability of our most interesting compounds to inhibit cellular endogenous Haspin kinase, we evaluated their effects on the phosphorylation of Histone H3 on Thr3, a bona fide Haspin substrate (Figure 4). We treated osteosarcoma U2OS cells with 2.5 μM of selected compounds for 16 h before quantifying H3T3 phosphorylation by immunofluorescence on early mitotic cells (Figure 4A,B). […] This discrepency could be explained by the inability of this compound to cross the plasma membrane or by reduced stability in a cellular environment.\nEthical approval for this study was obtained (9 July 2025) from DGRI-LabOGM (APPROVAL NUMBER: L1-2373). U2OS cells (purchased from ATCC, Manassas, VA, USA, reference HTB-96) were grown in DMEM medium (Dulbecco’s Modified Eagle Medium, High glucose; GlutaMAX, Life Technologies, Carlsbad, CA, USA) supplemented with 10% fetal bovine serum (Gibco, Grand Island, NY, USA) in a 5% CO2 humidified atmosphere. Cells grown on coverslips were treated for 16 h with each compound or 0.025% DMSO, then fixed with 4% paraformaldehyde in PBS, permeabilized by 0.15% Triton-X100 for 2 min, and blocked for 12 min in 4% BSA in PBS. Immunofluorescence assay was performed using standard protocols with a rabbit anti-phospho-Thr3 Histone H3 and a mouse anti-a-Tubulin (B-5-1-2) obtained from Merck Millipore, Burlington, MA, USA (1/2000 dilution). Coverslips were mounted with Vectashield containing DAPI (Vector Laboratories, Newark, CA, USA). Images were acquired with a Coolsnap HQ2 CCD camera (Photometrics, Tucson, AZ, USA) on a Zeiss Axio microscope (Carl Zeiss, Oberkochen, Germany) using a 63x NA 1.46 objective. Image acquisition and processing were performed using Zen Blue (Carl Zeiss). The H3T3ph signal on chromosomes was normalized against the DAPI signal and analyzed using ImageJ software (NIH, Version 1.54p). Graphs were produced and statistical analysis was performed using GraphPad Prism 10. p-values were determined by t-test; n.s., not significant; **** p ≤ 0.0001.\nFigure 4 Evaluation of selected compounds on cellular endogenous Haspin activity. (A) U2OS cells were treated with 2.5 μM of each compound or 1 μM of CHR6494 (CHR) or DMSO for 16 h. Immunofluorescence assay was performed with anti-pH3T3 antibody (green) and anti-a-Tubulin (red); DNA was labelled with DAPI (blue). Representative images of early mitotic cells for each condition are presented. Scale bar: 5 μm. (B) Scatter plot representing H3T3ph/DAPI signal ratio indicative of Haspin activity; n > 17 mitotic cells per condition. n.s., not significant; **** p ≤ 0.0001."}
{"compound": "CCCNc1ccc2ncc(-c3ccc4[nH]ncc4c3)n2n1", "note": "[CHR-6494, reference compound]", "values": [{"measurement": "Effect on endogenous Haspin activity (H3T3 phosphorylation)", "value": "abolished Haspin activity"}]}
